Series [1] is described as follows: Equilibrium aqueous solubility from solid. The format is physicochemical. To be noted: H20, room temperature overnight; for solubility: water, thermodynamic from solid. The procedure: Samples of the ocinaplon salts shown above were evaluated for equilibrium aqueous solubility from solid. Duplicate samples of ocinaplon were accurately weighed and diluted to 1 ml with water to 6.83 mg/ml and 6.43 mg/ml. Duplicate samples of Ocinaplon di HCl salt were accurately weighed and diluted to 1 ml with water to 5.5 mg/ml and 6.0 mg/ml. Ocinaplon di HBr salt was accurately weighed and diluted to 1 ml with water to 6.1 mg/ml and 5.8 mg/ml. Ocinaplon disulfate salt was accurately weighed and diluted to 1 ml with water to 7.5 mg/ml and 6.5 mg/ml. Any change in pH of the water following sample addition was recorded. After equilibration at room temperature overnight the solutions were filtered and solute concentration determined by fast gradient HPLC with UV/VIS/MS detection with reference to 5, 10, 50, 100 and 250 μM analytical standards. Prior to sample filtration, filters were primed with 600 μl of sample to resolve potential adsorption problems. Both sample replicates were collected through the primed filter. Duplicate determinations were made in all cases.

Series [2] in a line: Pharmacokinetics of different salt forms of ocinaplon after a single oral dose. The format is in vivo. The following applies: male beagle dogs; for Tmax / half-life / AUC(0-inf) / AUC(0-t) / Cmax: dog, plasma; for AUC(0-inf) / AUC(0-t) / Cmax: male, beagle, po; for AUC of ocinaplon relative to an equivalent amount of the free base / Cmax of ocinaplon relative to an equivalent amount of the free base / variability in plasma levels of ocinaplon compared to the free base / variability in the AUC (CV %) compared to the free base: oral 30 mg free base/kg. The procedure: The test compounds were prepared in 0.5% methylcellulose. The target concentrations of the free base and HBr salt were 1.0 and 1.34 mg/mL (equivalent to 1 mg of the free base), respectively. The liquid suspensions were administered via oral gavage. Prior to removing the gavage tube, the tube was flushed with approximately 5 mL of water.
Blood (approximately 2 mL) was collected from a jugular vein via syringe and needle and transferred into tubes containing K2EDTA anticoagulant predose and at 0.5, 1, 2, 3, 4, 6, 8, 12, and 24 hours postdose. Blood was maintained on wet ice, in chilled Kryoracks, or at approximately 5° C. prior to centrifugation to obtain plasma. Centrifugation began within 1 hour of collection. Plasma was placed on dry ice prior to storage at approximately −70° C. Plasma samples, remaining test compounds, and remaining dose formulations were shipped on dry ice to the analysis site and stored at approximately −70° C. before and after analysis. Samples were analyzed using an LC/MS/MS method. Plasma concentration-time data for each dog and formulation were analyzed using a noncompartmental model assumption with WinNonlin, version 4.1 (Pharsight Corporation, Mountain View, Calif.). All calculations were based on the nominal times as actual sample collection times departed minimally from the schedule times.
The pharmacokinetic parameters of different pyrazolopyrimidine acid salts vary in an apparently salt and compound dependent fashion. This is illustrated by a comparison of the pharmacokinetic properties of different acid salts of the pyrazolopyrimidine, ocinaplon. This study was performed in a manner similar to the study described in Example 9 hereinabove. The concentrations of the HCl, HBr and disulfate salts of ocinaplon were 3.72 mg/mL, 4.61 mg/mL and 4.95 mg/mL, respectively. All concentrations were calculated to be 3.0 mg free base/mL; the dose volume was […]. […] […] These findings exemplify and underscore the differences in pharmacokinetic profiles among these three exemplary salts of ocinaplon.

Setting [3] is: single oral dose 50 mg/kg, 0.5% MC, mean (CV %).
[4] abbreviates: 30 mg/kg, apparently scaled from 50 mg/kg, 0.5% MC.
Where [5] appears, read: 50 mg/kg, single oral dose 50 mg/kg, 0.5% MC, mean (CV %).
Where [6] appears, read: 30 mg/kg, single oral dose 30 mg Base/kg, 0.5% methylcellulose suspension, mean (CV %), N = 5.

Molecules are shown by their SMILES. Several values for one entry are separate records, joined by “and”; a condition that tells them apart may be missing. Identical values can stand only once. Entries after “also recorded” stand apart in the source; their conditions may differ. Counter-ions that a name gives are not always drawn.

The values that follow come from patent US20080045547A1, “Salts And Co-Crystals of Pyrazolopyrimidine Compounds, Compositions Thereof And Methods For Their Production And Use” (priority 2006, published 2008).

A word on the Tmax: it is the time from dosing to the highest level. One may read the half-life as the time in which the quantity being followed falls by half. The AUC(0-inf) is the area under the concentration-time curve extrapolated to infinity. Broadly, the AUC(0-t) is the area under the concentration-time curve up to a stated or last time point. Broadly, the Cmax is the maximum level reached in the sampled fluid or tissue. In the case of `O=C(c1ccccn1)c1cnn2c(-c3ccncc3)ccnc12` [Ocinaplon Free base, pyridin-2-yl(7-(pyridin-4-yl)pyrazolo[1,5-a]pyrimidin-3-yl)methanone, reference compound], the “Equilibrium Aqueous Solubility from Solid” value in series [1] was 0.4 mM and 0.1 mg/ml. Further, in series [2] (setting [3]), the Tmax came to 1.8 h and the half-life is 1.61 h. In series [2] (setting [4]), the AUC(0-inf) worked out at 37900 ng·h/mL, the AUC(0-t) was determined as 37600 ng·h/mL and the Cmax came to 6250 ng/mL. In addition, in series [2] (setting [5]), the area under the curve AUC(0-inf) came out at 63200 ng·h/mL, the AUC(0-t) is 62500 ng·h/mL and the Cmax worked out at 10400 ng/mL.

The term solubility denotes how much of the substance goes into solution per volume. A low value points to little dissolved substance. With `Br.Br.O=C(c1ccccn1)c1cnn2c(-c3ccncc3)ccnc12` [Ocinaplon di HBr], in series [1], the solubility is 11500 µM and 5300 µg/mL. Besides, in series [2] (setting [6]), the Tmax worked out at 0.9 h, the half-life is 0.83 h, the AUC(0-inf) came to 38100 ng·h/mL and the Cmax was 13600 ng/mL. Also, in series [2], the “AUC of ocinaplon relative to an equivalent amount of the free base” value is reported as “did not differ”, the “Cmax of ocinaplon relative to an equivalent amount of the free base” value is on record as “more than two-fold; also recorded: approximately twice”, the “variability in plasma levels of ocinaplon compared to the free base” value was “lower variability” and the “variability in the AUC (CV %) compared to the free base” value is given as “dramatically less”. Moreover, the AUC(0-t) in series [2] (30 mg Base/kg, single oral dose 30 mg Base/kg, 0.5% methylcellulose suspension, mean (CV %), N = 5) was found to be 38000 ng·h/mL.

For the compound `Cl.Cl.O=C(c1ccccn1)c1cnn2c(-c3ccncc3)ccnc12` [Ocinaplon di HCl salt], the solubility in series [1] was 12600 µM and 4700 µg/mL. Further, in series [2] (setting [6]), the Tmax worked out at 1.1 h, the half-life was 1.05 h, the AUC(0-inf) was 57300 ng·h/mL and the AUC(0-t) was determined as 57100 ng·h/mL. Further, in series [2] (setting [6]), the Cmax was 15000 ng/mL. Besides, in series [2], the “AUC of ocinaplon relative to an equivalent amount of the free base” value was “almost twice as high”, the “Cmax of ocinaplon relative to an equivalent amount of the free base” value was “more than two-fold”, the “variability in plasma levels of ocinaplon compared to the free base” value is “lower variability” and the “variability in the AUC (CV %) compared to the free base” value was “much less variability”.

With `O=C(c1ccccn1)c1cnn2c(-c3ccncc3)ccnc12` [Ocinaplon disulfate salt], the “Equilibrium Aqueous Solubility from Solid” value in series [1] is 10.6 mM and 5.3 mg/ml. In addition, in series [2] (setting [6]), the Tmax is 0.8 h, the half-life is 0.95 h, the total exposure AUC(0-inf) worked out at 46400 ng·h/mL and the AUC(0-t) is 46300 ng·h/mL. Also, the Cmax in series [2] (setting [6]) was 14800 ng/mL. Also, in series [2], the “Cmax of ocinaplon relative to an equivalent amount of the free base” value is “more than two-fold”.
